{"source": "patent US20240180880A1", "about": "“METHODS OF USING EHMT2 INHIBITORS IN TREATING OR PREVENTING BLOOD DISORDERS” (Epizyme, Inc., priority 2017, published 2024)", "test_system": "284 cell lines", "experiment": "cells", "conditions": "Homo sapiens", "description": "A screen of 284 cell lines to assess the antiproliferative effect of EHMT2 inhibition was conducted by treating cell lines in 384-well format with a half-log step dilutions of Compound 205 over 10 concentrations with a maximum concentration of 0.1% v/v DMSO. Cells were plated on Day 0 and treated with compound on Day 1. Culture medium was replaced on day 7 and cells redosed. After 10-day incubation, cells were fixed and stained with nuclear dye. Automated fluorescence microscopy was carried out using a Molecular Devices ImageXpress Micro XL high-content imager, and images were collected with a 4× objective. 16-bit TIFF images were acquired and analyzed with MetaXpress 5.1.0.41 software. Cell proliferation was measured by the fluorescence intensity of the incorporated nuclear dye. Cell count IC50 is the test compound concentration at 50% of maximal response of the untreated control.", "note": "Read-outs that look alike come from different tables or passages of the source.", "data": [{"compound": "CNc1cc(C)nc(Nc2ccc(OC)c(OCCCN3CCCC3)c2)n1", "note": "[Compound 205]", "values": [{"measurement": "IC50", "setting": "DU-145, read-out: Cell Count IC50, DU145, Prostate", "result": "> 10", "unit": "µM"}, {"measurement": "IC50", "setting": "Daoy, read-out: Cell Count IC50, Daoy, Central Nervous System, Medulloblastoma", "result": "1 to 10", "unit": "µM"}, {"measurement": "IC50", "setting": "Daudi, read-out: Cell Count IC50, Daudi, Hematopoietic, Lymphoma", "result": "1 to 10", "unit": "µM"}, {"measurement": "IC50", "setting": "Detroit 562, read-out: Cell Count IC50, Detroit 562, Head and Neck", "result": "1 to 10", "unit": "µM"}, {"measurement": "IC50", "setting": "DoTc2-4510, read-out: Cell Count IC50, DoTc2 4510, Female GU, Cervix", "result": "1 to 10", "unit": "µM"}, {"measurement": "IC50", "setting": "EFM-19, read-out: Cell Count IC50, EFM-19, Breast", "result": "> 10", "unit": "µM"}, {"measurement": "IC50", "setting": "FaDu, read-out: Cell Count IC50, FaDu, Head and Neck", "result": "1 to 10", "unit": "µM"}, {"measurement": "IC50", "setting": "G292, read-out: Cell Count IC50, G-292, clone A141B1, Bone, Osteosarcoma", "result": "> 10", "unit": "µM"}, {"measurement": "IC50", "setting": "G-361, read-out: Cell Count IC50, G-361, Skin, Melanoma", "result": "1 to 10", "unit": "µM"}, {"measurement": "IC50", "setting": "G-401, read-out: Cell Count IC50, G-401, Kidney", "result": "> 10", "unit": "µM"}, {"measurement": "IC50", "setting": "G-402, read-out: Cell Count IC50, G-402, Kidney", "result": "1 to 10", "unit": "µM"}, {"measurement": "IC50", "setting": "HCT-8, read-out: Cell Count IC50, HCT-8, Colon", "result": "> 10", "unit": "µM"}, {"measurement": "IC50", "setting": "HCT-15, read-out: Cell Count IC50, HCT-15, Colon", "result": "> 10", "unit": "µM"}, {"measurement": "IC50", "setting": "HCT-116, read-out: Cell Count IC50, HCT-116, Colon", "result": "> 10", "unit": "µM"}, {"measurement": "IC50", "setting": "HEC-1-A, read-out: Cell Count IC50, HEC-1-A, Female GU, Uterus", "result": "1 to 10", "unit": "µM"}, {"measurement": "IC50", "setting": "HEL 92.1.7, read-out: Cell Count IC50, HEL-92-1-7, Hematopoietic, Leukemia", "result": "> 10", "unit": "µM"}, {"measurement": "IC50", "setting": "HMCB, read-out: Cell Count IC50, HMCB, Skin, Melanoma", "result": "> 10", "unit": "µM"}, {"measurement": "IC50", "setting": "HPAF-II, read-out: Cell Count IC50, HPAF-II, Pancreas", "result": "1 to 10", "unit": "µM"}, {"measurement": "IC50", "setting": "HT1197, read-out: Cell Count IC50, HT-1197, Bladder", "result": "1 to 10", "unit": "µM"}, {"measurement": "IC50", "setting": "HT-29, read-out: Cell Count IC50, HT-29, Colon", "result": "1 to 10", "unit": "µM"}, {"measurement": "IC50", "setting": "HT-1080, read-out: Cell Count IC50, HT-1080, Soft & Connective Tissue, Sarcoma", "result": "> 10", "unit": "µM"}, {"measurement": "IC50", "setting": "HT-1376, read-out: Cell Count IC50, HT1376, Bladder", "result": "> 10", "unit": "µM"}, {"measurement": "IC50", "setting": "HeLa, read-out: Cell Count IC50, HeLa, Female GU, Cervix", "result": "> 10", "unit": "µM"}, {"measurement": "IC50", "setting": "HepG2, read-out: Cell Count IC50, HepG2, Liver", "result": "> 10", "unit": "µM"}, {"measurement": "IC50", "setting": "Hs 294T, read-out: Cell Count IC50, Hs 294T, Skin, Melanoma", "result": "1 to 10", "unit": "µM"}, {"measurement": "IC50", "setting": "Hs 683, read-out: Cell Count IC50, Hs 683, Central Nervous System, Glioma", "result": "1 to 10", "unit": "µM"}, {"measurement": "IC50", "setting": "Hs 695T, read-out: Cell Count IC50, Hs 695T, Skin, Melanoma", "result": "1 to 10", "unit": "µM"}, {"measurement": "IC50", "setting": "Hs746T, read-out: Cell Count IC50, HS 746T, Stomach", "result": "> 10", "unit": "µM"}, {"measurement": "IC50", "setting": "Hs-578T, read-out: Cell Count IC50, Hs 578T, Breast", "result": "> 10", "unit": "µM"}, {"measurement": "IC50", "setting": "HuCCT-1, read-out: Cell Count IC50, HuCCT1, Liver", "result": "1 to 10", "unit": "µM"}, {"measurement": "IC50", "setting": "HuP-T4, read-out: Cell Count IC50, HuP-T4, Pancreas", "result": "1 to 10", "unit": "µM"}, {"measurement": "IC50", "setting": "HuTu80, read-out: Cell Count IC50, HuTu 80, Duodenum", "result": "1 to 10", "unit": "µM"}, {"measurement": "IC50", "setting": "JEG-3, read-out: Cell Count IC50, JEG-3, Placenta", "result": "> 10", "unit": "µM"}, {"measurement": "IC50", "setting": "JIYOYE, read-out: Cell Count IC50, Jiyoye, Hematopoietic, Lymphoma", "result": "> 10", "unit": "µM"}, {"measurement": "IC50", "setting": "JeKo-1, read-out: Cell Count IC50, JeKo-1, Hematopoietic, Lymphoma", "result": "1 to 10", "unit": "µM"}, {"measurement": "IC50", "setting": "Jurkat, read-out: Cell Count IC50, Jurkat, Hematopoietic, Leukemia", "result": "1 to 10", "unit": "µM"}, {"measurement": "IC50", "setting": "K562, read-out: Cell Count IC50, K562, Hematopoietic, Leukemia", "result": "1 to 10", "unit": "µM"}, {"measurement": "IC50", "setting": "KATO III, read-out: Cell Count IC50, KATO III, Stomach", "result": "1 to 10", "unit": "µM"}, {"measurement": "IC50", "setting": "KU812, read-out: Cell Count IC50, KU812, Hematopoietic, Leukemia", "result": "> 10", "unit": "µM"}, {"measurement": "IC50", "setting": "LNCaP, read-out: Cell Count IC50, LNCaP, Prostate", "result": "0.1 to 1", "unit": "µM"}, {"measurement": "IC50", "setting": "LS174T, read-out: Cell Count IC50, LS-174T, Colon", "result": "1 to 10", "unit": "µM"}, {"measurement": "IC50", "setting": "LS-123, read-out: Cell Count IC50, LS123, Colon", "result": "1 to 10", "unit": "µM"}, {"measurement": "IC50", "setting": "LS-411N, read-out: Cell Count IC50, LS411N, Colon", "result": "1 to 10", "unit": "µM"}, {"measurement": "IC50", "setting": "LS-513, read-out: Cell Count IC50, LS513, Colon", "result": "1 to 10", "unit": "µM"}, {"measurement": "IC50", "setting": "LS-1034, read-out: Cell Count IC50, LS1034, Colon", "result": "> 10", "unit": "µM"}, {"measurement": "IC50", "setting": "M059J, read-out: Cell Count IC50, M059J, Central Nervous System, Glioma", "result": "> 10", "unit": "µM"}, {"measurement": "IC50", "setting": "MC-IXC, read-out: Cell Count IC50, MC-IXC, Central Nervous System, Neuroblastoma", "result": "> 10", "unit": "µM"}, {"measurement": "IC50", "setting": "MCF7, read-out: Cell Count IC50, MCF7, Breast", "result": "> 10", "unit": "µM"}, {"measurement": "IC50", "setting": "MDA-MB-231, read-out: Cell Count IC50, MDA MB 231, Breast", "result": "1 to 10", "unit": "µM"}, {"measurement": "IC50", "setting": "MDA-MB-415, read-out: Cell Count IC50, MDA-MB-415, Breast", "result": "> 10", "unit": "µM"}, {"measurement": "IC50", "setting": "MDA-MB-436, read-out: Cell Count IC50, MDA-MB-436, Breast", "result": "> 10", "unit": "µM"}, {"measurement": "IC50", "setting": "MDA-MB-453, read-out: Cell Count IC50, MDA MB 453, Breast", "result": "1 to 10", "unit": "µM"}, {"measurement": "IC50", "setting": "MDA-MB-468, read-out: Cell Count IC50, MDA MB 468, Breast", "result": "1 to 10", "unit": "µM"}, {"measurement": "IC50", "setting": "ME-180, read-out: Cell Count IC50, ME-180, Female GU, Cervix", "result": "> 10", "unit": "µM"}, {"measurement": "IC50", "setting": "MEG-01, read-out: Cell Count IC50, MEG01, Hematopoietic, Leukemia", "result": "1 to 10", "unit": "µM"}, {"measurement": "IC50", "setting": "MES-SA, read-out: Cell Count IC50, MES-SA, Soft & Connective Tissue, Sarcoma", "result": "1 to 10", "unit": "µM"}, {"measurement": "IC50", "setting": "MG-63, read-out: Cell Count IC50, MG-63, Bone, Osteosarcoma", "result": "1 to 10", "unit": "µM"}, {"measurement": "IC50", "setting": "MHH-PREB-1, read-out: Cell Count IC50, MHH-PREB-1, Hematopoietic, Leukemia", "result": "1 to 10", "unit": "µM"}, {"measurement": "IC50", "setting": "MIA PaCa-2, read-out: Cell Count IC50, Mia PaCa-2, Pancreas", "result": "1 to 10", "unit": "µM"}, {"measurement": "IC50", "setting": "MOLT-3, read-out: Cell Count IC50, MOLT-3, Hematopoietic, Leukemia", "result": "1 to 10", "unit": "µM"}, {"measurement": "IC50", "setting": "MOLT-16, read-out: Cell Count IC50, MOLT-16, Hematopoietic, Leukemia", "result": "1 to 10", "unit": "µM"}, {"measurement": "IC50", "setting": "MV4-11, read-out: Cell Count IC50, MV-4-11, Hematopoietic, Leukemia", "result": "0.1 to 1", "unit": "µM"}, {"measurement": "IC50", "setting": "Malme-3M, read-out: Cell Count IC50, MALME3M, Skin, Melanoma", "result": "> 10", "unit": "µM"}, {"measurement": "IC50", "setting": "MeWo, read-out: Cell Count IC50, MeWo, Skin, Melanoma", "result": "1 to 10", "unit": "µM"}, {"measurement": "IC50", "setting": "NALM-6, read-out: Cell Count IC50, NALM-6, Hematopoietic, Leukemia", "result": "1 to 10", "unit": "µM"}, {"measurement": "IC50", "setting": "NCI-H69, read-out: Cell Count IC50, NCI-H69, Lung, SCLC", "result": "0.1 to 1", "unit": "µM"}, {"measurement": "IC50", "setting": "NCI-H292, read-out: Cell Count IC50, NCI-H292, Lung, NSCLC", "result": "> 10", "unit": "µM"}, {"measurement": "IC50", "setting": "NCI-H295R, read-out: Cell Count IC50, NCI-H295R, Endocrine, Adrenal gland", "result": "> 10", "unit": "µM"}, {"measurement": "IC50", "setting": "NCI-H441, read-out: Cell Count IC50, NCIH441, Lung, NSCLC", "result": "> 10", "unit": "µM"}, {"measurement": "IC50", "setting": "NCI-H446, read-out: Cell Count IC50, NCIH446, Lung, SCLC", "result": "1 to 10", "unit": "µM"}, {"measurement": "IC50", "setting": "NCI-H460, read-out: Cell Count IC50, NCI-H460, Lung, NSCLC", "result": "> 10", "unit": "µM"}]}]}
